In US9273057B2 (Bristol-Myers Squibb Company, priority 2012, dated 2016):

Target: CK2A1 (CK2α/β) (Homo sapiens, UniProt P68400)
Test: CK2 kinase assay, CK2A1 (CK2α/β)
Assay type: biochemical
Conditions: Table A; read-out: CK2A1 (CK2α/β) (IC50)

CK2A1 (CK2α/β), sequence (P68400 whole entry, species assumed): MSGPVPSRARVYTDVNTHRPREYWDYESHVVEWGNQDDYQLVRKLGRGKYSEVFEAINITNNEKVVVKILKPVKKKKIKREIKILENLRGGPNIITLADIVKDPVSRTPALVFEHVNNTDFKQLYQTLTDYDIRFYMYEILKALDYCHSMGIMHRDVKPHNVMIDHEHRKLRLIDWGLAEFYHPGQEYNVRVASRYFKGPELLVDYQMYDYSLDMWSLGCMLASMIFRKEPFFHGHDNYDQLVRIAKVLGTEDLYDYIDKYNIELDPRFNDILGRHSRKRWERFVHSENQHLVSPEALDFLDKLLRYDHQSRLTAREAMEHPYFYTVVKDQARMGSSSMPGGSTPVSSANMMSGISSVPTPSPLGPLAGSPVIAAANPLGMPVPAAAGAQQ
CK2A1 (CK2α/β), sequence (P67870 whole entry partner, species assumed): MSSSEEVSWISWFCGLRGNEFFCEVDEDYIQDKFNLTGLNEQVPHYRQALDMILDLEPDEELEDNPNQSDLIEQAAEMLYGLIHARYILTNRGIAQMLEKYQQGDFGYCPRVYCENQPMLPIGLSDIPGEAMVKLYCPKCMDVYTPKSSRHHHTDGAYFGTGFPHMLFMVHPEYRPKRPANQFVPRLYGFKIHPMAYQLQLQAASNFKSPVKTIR

SMILES	IC50
CCNc1nc(Nc2cc(C#N)cc(CCCN3CCN(C)CC3)c2Cl)nn2c(C#N)cnc12 [Example 578, 2-((2-chloro-5-cyano-3-(3-(4-methylpiperazin-1-yl)propyl)phenyl)amino)-4-(ethylamino)imidazo[2,1-f][1,2,4]triazine-7-carbonitrile]	990 pM
N#Cc1cc2c(c(Nc3nc(NC4CC4)c4ncc(C#N)n4n3)c1)NCCOCC(=O)N2 [Example 632, 11-((7-cyano-4-(cyclopropylamino)imidazo[2,1-f][1,2,4]triazin-2-yl)amino)-6-oxo-1,2,3,5,6,7-hexahydrobenzo[e][1,4,7]oxadiazonine-9-carbonitrile]	1450 pM
CCNc1nc(Nc2cc(C#N)cc(N3C[C@H](NC(=O)OC)[C@H](OC)C3)c2Cl)nn2c(C#N)cnc12 [Example 334, methyl ((3S,4R)-1-(2-chloro-5-cyano-3-((7-cyano-4-(ethylamino)imidazo[2,1-f][1,2,4]triazin-2-yl)amino)phenyl)-4-methoxy-3-pyrrolidinyl)carbamate]	1100 pM
CC1(O)CN([C@@H]2CCCN(c3cc(C#N)cc(Nc4nc(NC5CC5)c5ncc(C#N)n5n4)c3Cl)C2)C1 [Example 45, 2-((2-chloro-5-cyano-3-((3R)-3-(3-hydroxy-3-methyl-1-azetidinyl)-1-piperidinyl)phenyl)amino)-4-(cyclopropylamino)imidazo [2,1-f][1,2,4]triazine-7-carbonitrile]	960 pM
CS(=O)(=O)NC(=O)CN1CCN(c2cc(C#N)cc(Nc3nc(NC4CC4)c4ncc(C#N)n4n3)c2Cl)CC1 [Example 607, 2-[4-(2-chloro-5-cyano-3-{[7-cyano-4-(cyclopropylamino)imidazo [2,1-f][1,2,4]triazin-2-yl]amino}phenyl)piperazin-1-yl]-N-methanesulfonamide-acetamide]	560 pM
CC1(N2CCC(Oc3cc(C#N)cc(Nc4nc(NC5CC5)c5ncc(C#N)n5n4)c3Cl)CC2)COC1 [Example 427, 2-((2-chloro-5-cyano-3-((1-(3-methyloxetan-3-yl)piperidin-4-yl)oxy)phenyl)amino)-4-(cyclopropylamino)imidazo[2,1-f][1,2,4]triazine-7-carbonitrile]	780 pM
N#Cc1cc(Nc2nc(NC3CC3)c3ncc(C#N)n3n2)c(Cl)c(N2CCN(C3CN(C(=O)CC4CCOCC4)C3)CC2)c1 [Example 483, 2-{[2-chloro-5-cyano-3-(4-{1-[2-(oxan-4-yl)acetyl]azetidin-3-yl}piperazin-1-yl)phenyl]amino}-4-(cyclopropylamino)imidazo[2,1-f][1,2,4]triazine-7-carbonitrile]	870 pM
N#CCNC1CCN(c2cc(C#N)cc(Nc3nc(NC4CC4)c4ncc(C#N)n4n3)c2Cl)CC1 [Example 141, 2-((2-chloro-5-cyano-3-(4-((cyanomethyl)amino)-1-piperidinyl)phenyl)amino)-4-(cyclopropylamino)imidazo [2,1-f][1,2,4]triazine-7-carbonitrile]	670 pM
CCNc1nc(Nc2cc(C#N)cc(N3CC[C@@H](N4CC(O)C4)[C@H](O)C3)c2Cl)nn2c(C#N)cnc12 (racemic) [Example 776, (+/−)-2-((2-chloro-5-cyano-3-((3R,4R)-3-hydroxy-4-(3-hydroxyazetidin-1-yl)piperidin-1-yl)phenyl)amino)-4-(ethylamino)imidazo[2,1-f][1,2,4]triazine-7-carbonitrile]	1200 pM
CCNc1nc(Nc2cc(C#N)cc(N3CC[C@@H](NC(=O)OC)[C@H](O)C3)c2F)nn2c(C#N)cnc12 [Example 381, methyl ((3R,4R)-1-(5-cyano-3-((7-cyano-4-(ethylamino)imidazo[2,1-f][1,2,4]triazin-2-yl)amino)-2-fluorophenyl)-3-hydroxypiperidin-4-yl)carbamate]	530 pM
N#Cc1cc(Nc2nc(NC3CC3)c3ncc(C#N)n3n2)c(Cl)c(N2CCN(CCO)CC2=O)c1 [Example 634, 2-((2-chloro-5-cyano-3-(4-(2-hydroxyethyl)-2-oxopiperazin-1-yl)phenyl)amino)-4-(cyclopropylamino)imidazo[2,1-f][1,2,4]triazine-7-carbonitrile]	3000 pM
